Data on 30 compounds can be found in US9951065B2 (Gilead Sciences, Inc., priority 2015, dated 2018).

T1 sequence (P14902 whole entry): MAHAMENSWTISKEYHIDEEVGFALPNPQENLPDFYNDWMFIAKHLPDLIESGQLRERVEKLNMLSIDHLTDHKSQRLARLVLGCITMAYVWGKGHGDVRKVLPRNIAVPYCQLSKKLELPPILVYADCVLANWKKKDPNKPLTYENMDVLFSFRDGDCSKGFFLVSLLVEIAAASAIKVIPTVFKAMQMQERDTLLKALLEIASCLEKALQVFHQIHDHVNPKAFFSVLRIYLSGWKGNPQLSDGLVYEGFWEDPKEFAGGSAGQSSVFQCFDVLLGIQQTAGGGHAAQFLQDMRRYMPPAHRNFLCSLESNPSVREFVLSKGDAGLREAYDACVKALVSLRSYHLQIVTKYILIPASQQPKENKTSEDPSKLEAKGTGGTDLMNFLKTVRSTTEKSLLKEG

This experiment has as its target T1, IDO1 (Homo sapiens, UniProt P14902).
T1 construct: HeLa cells were treated with a test compound in the presence of IFNγ, which induces IDO1 expression; host or cells: H1-HeLa cells, IDO1 induced with IFNγ
The experiment can be described thus: Cell-based (HeLa) assay for measurement of IDO1 inhibition (kynurenine levels in supernatant after IFNγ induction). Particulars: HeLa cells, IFNγ-induced IDO1, kynurenine in supernatant, 48 hour incubation; geometric mean of a minimum of four determinations. Put shortly:
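HeLa cells, 1,250 per well, treated with compound (0.5% DMSO final) plus IFNγ to induce IDO1, for 48 h. Supernatant kynurenine measured by TCA hydrolysis at 60 °C, then p-dimethylaminobenzaldehyde, absorbance 480 nm. EC50 from a four-parameter fit normalized to −/+IFNγ controls; geometric mean of at least four runs.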
Usually EC50 stands for the concentration that produces a half-maximal response. A low value points to an effect from little substance. As for `Nc1ccccc1CNc1nc2c(F)c(F)cc(/C(=N/O)Nc3ccc(F)c(Cl)c3)c2[nH]1` [Example 347, 2-((2-aminobenzyl)amino)-N-(3-chloro-4-fluorophenyl)-4,5-difluoro-N′-hydroxy-1H-benzo[d]imidazole-7-carboximidamide], it took 3.27 µM to reach a half-maximal effect (EC50). Then `CN(C)c1ccccc1CNc1nc2c(F)c(F)cc(/C(=N/O)Nc3ccc(F)c(Cl)c3)c2[nH]1` [Example 348, N-(3-chloro-4-fluorophenyl)-2-((2-(dimethylamino)benzyl)amino)-4,5-difluoro-N′-hydroxy-1H-benzo[d]imidazole-7-carboximidamide], with 3.43 µM. Then `Cn1ccnc1CNc1nc2c(F)c(F)cc(/C(=N/O)Nc3ccc(F)c(Cl)c3)c2[nH]1` [Example 349, N-(3-chloro-4-fluorophenyl)-4,5-difluoro-N′-hydroxy-2-(((1-methyl-1H-imidazol-2-yl)methyl)amino)-1H-benzo[d]imidazole-7-carboximidamide], with 2.54 µM; and `O/N=C(\Nc1ccc(F)c(Cl)c1)c1cc(F)c(F)c2nc(NCc3ncccn3)[nH]c12` [Example 350, N-(3-chloro-4-fluorophenyl)-4,5-difluoro-N′-hydroxy-2-((pyrimidin-2-ylmethyl)amino)-1H-benzo[d]imidazole-7-carboximidamide], with 7.03 µM; and `CN(C)CC(C)(C)CNc1nc2c(F)c(F)cc(/C(=N/O)Nc3ccc(F)c(Cl)c3)c2[nH]1` [Example 351, N-(3-chloro-4-fluorophenyl)-2-((3-(dimethylamino)-2,2-dimethylpropyl)amino)-4,5-difluoro-N′-hydroxy-1H-benzo[d]imidazole-7-carboximidamide], with 0.432 µM. `CC(CNc1nc2c(F)c(F)cc(/C(=N/O)Nc3ccc(F)c(Cl)c3)c2[nH]1)CN(C)C` (stereo not drawn) [Example 352, N-(3-chloro-4-fluorophenyl)-2-((3-(dimethylamino)-2-methylpropyl)amino)-4,5-difluoro-N′-hydroxy-1H-benzo[d]imidazole-7-carboximidamide] registered an EC50 of 0.437 µM.

With `CC(CCNc1nc2c(F)c(F)cc(/C(=N/O)Nc3ccc(F)c(Cl)c3)c2[nH]1)N(C)C` (stereo not drawn) [Example 353, N-(3-chloro-4-fluorophenyl)-2-((3-(dimethylamino)butyl)amino)-4,5-difluoro-N′-hydroxy-1H-benzo[d]imidazole-7-carboximidamide], the EC50 was found to be 1.29 µM. `CN1CCCC1CCNc1nc2c(F)c(F)cc(/C(=N/O)Nc3ccc(F)c(Cl)c3)c2[nH]1` (stereo not drawn) [Example 354, N-(3-chloro-4-fluorophenyl)-4,5-difluoro-N′-hydroxy-2-((2-(1-methylpyrrolidin-2-yl)ethyl)amino)-1H-benzo[d]imidazole-7-carboximidamide] had an EC50 of 1.21 µM. Then `CN1CCCCC1CCNc1nc2c(F)c(F)cc(/C(=N/O)Nc3ccc(F)c(Cl)c3)c2[nH]1` (stereo not drawn) [Example 355, N-(3-chloro-4-fluorophenyl)-4,5-difluoro-N′-hydroxy-2-((2-(1-methylpiperidin-2-yl)ethyl)amino)-1H-benzo[d]imidazole-7-carboximidamide], with 2.02 µM; and `CN1CCOC(CNc2nc3c(F)c(F)cc(/C(=N/O)Nc4ccc(F)c(Cl)c4)c3[nH]2)C1` (stereo not drawn) [Example 356, N-(3-chloro-4-fluorophenyl)-4,5-difluoro-N′-hydroxy-2-(((4-methylmorpholin-2-yl)methyl)amino)-1H-benzo[d]imidazole-7-carboximidamide], with 3.26 µM; and `CN1CCOC(CNc2nc3nccc(/C(=N/O)Nc4ccc(F)c(Cl)c4)c3[nH]2)C1` (stereo not drawn) [Example 357, N-(3-chloro-4-fluorophenyl)-N′-hydroxy-2-(((4-methylmorpholin-2-yl)methyl)amino)-1H-imidazo[4,5-b]pyridine-7-carboximidamide], with 3.24 µM. Then `Cn1nccc1CNc1nc2nccc(/C(=N/O)Nc3ccc(F)c(Cl)c3)c2[nH]1` [Example 358, N-(3-chloro-4-fluorophenyl)-N′-hydroxy-2-(((1-methyl-1H-pyrazol-5-yl)methyl)amino)-1H-imidazo[4,5-b]pyridine-7-carboximidamide], with 8.79 µM; and `O/N=C(\Nc1ccc(F)c(Cl)c1)c1ccc(F)c2nc(NCCN3CCOCC3)[nH]c12` [Example 368, N-(3-chloro-4-fluorophenyl)-4-fluoro-N′-hydroxy-2-((2-morpholinoethyl)amino)-1H-benzo[d]imidazole-7-carboximidamide], with 4 µM; and `CN(C(=NO)c1ccnc2nc[nH]c12)c1ccc(F)c(Cl)c1` [Example 369, N-(3-chloro-4-fluorophenyl)-N′-hydroxy-N-methyl-1H-imidazo[4,5-b]pyridine-7-carboximidamide], with over 10 µM. As for `Nc1nc2cc(F)cc(/C(=N/O)Nc3ccc(F)c(Cl)c3)c2[nH]1` [Example 370, 2-amino-N-(3-chloro-4-fluorophenyl)-5-fluoro-N′-hydroxy-1H-benzo[d]imidazole-7-carboximidamide], the figure is 1.08 µM. With `Nc1nc2cc(F)cc(/C(=N/O)Nc3cccc(Cl)c3)c2[nH]1` [Example 371, 2-amino-N-(3-chlorophenyl)-5-fluoro-N′-hydroxy-1H-benzo[d]imidazole-7-carboximidamide], the EC50 came to 0.644 µM. Compared with the last compound, the EC50 is about 1.7-fold lower. Compound `Nc1nc2cc(F)cc(/C(=N/O)Nc3cccc(Br)c3)c2[nH]1` [Example 372, 2-amino-N-(3-bromophenyl)-5-fluoro-N′-hydroxy-1H-benzo[d]imidazole-7-carboximidamide] displayed a half-maximal effective concentration (EC50) of 0.483 µM.

`Nc1nc2cc(F)cc(/C(=N/O)Nc3ccc(F)c(Br)c3)c2[nH]1` [Example 373, 2-amino-N-(3-bromo-4-fluorophenyl)-5-fluoro-N′-hydroxy-1H-benzo[d]imidazole-7-carboximidamide] showed an EC50 of 0.736 µM. Against the preceding compound, the EC50 is about 1.5-fold higher.

`O=S1(=O)CCN(CCNc2nc3c(F)c(F)cc(/C(=N/O)Nc4ccc(F)c(Cl)c4)c3[nH]2)CC1` [Example 374, N-(3-chloro-4-fluorophenyl)-2-((2-(1,1-dioxidothiomorpholino)ethyl)amino)-4,5-difluoro-N′-hydroxy-1H-benzo[d]imidazole-7-carboximidamide] returned an EC50 of 2.4 µM. This EC50 lies about 3.3-fold higher than the previous one. As for `CCN(CC)CCNc1nc2c(F)ccc(/C(=N/O)Nc3ccc(F)c(Cl)c3)c2[nH]1` [Example 375, N-(3-chloro-4-fluorophenyl)-2-((2-(diethylamino)ethyl)amino)-4-fluoro-N′-hydroxy-1H-benzo[d]imidazole-7-carboximidamide], the figure is 1.19 µM; as for `O/N=C(\Nc1ccc(F)c(Cl)c1)c1ccc(F)c2nc(NCCN3CCCC3)[nH]c12` [Example 376, N-(3-chloro-4-fluorophenyl)-4-fluoro-N′-hydroxy-2-((2-(pyrrolidin-1-yl)ethyl)amino)-1H-benzo[d]imidazole-7-carboximidamide], 1.26 µM; as for `CC(CNc1nc2c(F)c(F)cc(/C(=N/O)Nc3ccc(F)c(Cl)c3)c2[nH]1)N1CCOCC1` (stereo not drawn) [Example 377, N-(3-chloro-4-fluorophenyl)-4,5-difluoro-N′-hydroxy-2-((2-morpholinopropyl)amino)-1H-benzo[d]imidazole-7-carboximidamide], 0.838 µM.

Consider `CC(CN(C)C)Nc1nc2c(F)c(F)cc(/C(=N/O)Nc3ccc(F)c(Cl)c3)c2[nH]1` (stereo not drawn) [Example 378, N-(3-chloro-4-fluorophenyl)-2-((1-(dimethylamino)propan-2-yl)amino)-4,5-difluoro-N′-hydroxy-1H-benzo[d]imidazole-7-carboximidamide], for which the EC50 was found to be 1.4 µM. Then `CN(C)CCNc1nc2cc(F)cc(/C(=N/O)Nc3ccc(F)c(Cl)c3)c2[nH]1` [Example 379, N-(3-chloro-4-fluorophenyl)-2-((2-(dimethylamino)ethyl)amino)-5-fluoro-N′-hydroxy-1H-benzo[d]imidazole-7-carboximidamide], with 0.435 µM; and `O/N=C(\Nc1ccc(F)c(Cl)c1)c1cc(F)cc2nc(NCCN3CCCC3)[nH]c12` [Example 380, N-(3-chloro-4-fluorophenyl)-5-fluoro-N′-hydroxy-2-((2-(pyrrolidin-1-yl)ethyl)amino)-1H-benzo[d]imidazole-7-carboximidamide], with 1.39 µM. Then `CN(C)CC(C)(C)CNc1nc2c(F)ccc(/C(=N/O)Nc3ccc(F)c(Cl)c3)c2[nH]1` [Example 381, N-(3-chloro-4-fluorophenyl)-2-((3-(dimethylamino)-2,2-dimethylpropyl)amino)-4-fluoro-N′-hydroxy-1H-benzo[d]imidazole-7-carboximidamide], with 3.03 µM; and `CN(C)CCNc1nc2c(F)ccc(/C(=N/O)Nc3ccc(F)c(Br)c3)c2[nH]1` [Example 382, N-(3-bromo-4-fluorophenyl)-2-((2-(dimethylamino)ethyl)amino)-4-fluoro-N′-hydroxy-1H-benzo[d]imidazole-7-carboximidamide], with 0.608 µM; and `CN(C)CCNc1nc2c(F)ccc(/C(=N/O)Nc3cccc(Br)c3)c2[nH]1` [Example 383, N-(3-bromophenyl)-2-((2-(dimethylamino)ethyl)amino)-4-fluoro-N′-hydroxy-1H-benzo[d]imidazole-7-carboximidamide], with 0.319 µM.

As for `CN(C)CCNc1nc2c(F)ccc(/C(=N/O)Nc3cccc(Cl)c3)c2[nH]1` [Example 384, N-(3-chlorophenyl)-2-((2-(dimethylamino)ethyl)amino)-4-fluoro-N′-hydroxy-1H-benzo[d]imidazole-7-carboximidamide], the EC50 was 0.29 µM. In turn, `CN(C)CCCNc1nc2c(F)c(F)cc(/C(=N/O)Nc3cccc(Cl)c3)c2[nH]1` [Example 385, N-(3-chlorophenyl)-2-((3-(dimethylamino)propyl)amino)-4,5-difluoro-N′-hydroxy-1H-benzo[d]imidazole-7-carboximidamide] yielded an EC50 of 0.58 µM.
